The values below come from patent US20100316590A1, “COMPOSITIONS AND METHODS RELATED TO POLOXAMER COPOLYMER MEMBRANE SEALANT” (THE BOARD OF REGENTS OF THE UNIVERSITY OF TEXAS SYSTEM, priority 2009, published 2010).

For the series, the system named is SH-SY5Y human neuroblastoma cells.

On to poloxamer 188 [Poloxamer P188], for which the “reduction in cell viability of cells treated with P188 alone compared to untreated controls” value is given as “not statistically significant”.

As to poloxamer 407 [Poloxamer P407], the “toxicity of poloxamer on its own to the cells compared to untreated controls” value is reported as “non-toxic”.
